# From paper PMC4650712, “Conversion of cell-survival activity of Akt into apoptotic death of cancer cells by two mutations on the BIM BH3 domain” (Cell Death & Disease, 2015)
# Key:
# HCT116 cells [1] = assay: Death of HCT116 cells with ectopic Akt; format: cell-based; conditions: peptide 72 h
# Description: (§1) For intracellular delivery, BH3BIM(I155R/E158S) was fused to the C-terminus of the cell penetration peptide (CPP) derived from HIV Tat (Figure 1). PC3 and HCT116 cells were treated with the CPP-BH3BIM(I155R/E158S) peptide, and the MTT assay was performed. […] We then measured the activity of Akt by examining the phosphorylation state of itself and its substrate GSK3β. […] To elaborate this observation, we examined the effect of the fusion peptide in three different human lung cancer cell lines. […] We then assessed the effect of the Akt activity by ectopically expressing wild-type Akt (Akt-WT), constitutively active Akt (myristoylated Akt; Akt-Myr) or kinase-dead-Akt (Akt-KD). […] The kinase activities of the three Akt versions were confirmed by examining GSK3β phosphorylation (Figures 6f and p-GSK3β). To know whether CPP-BH3BIM(I155R/E158S)-induced cell death might depend on BAX, the HCT116 BAX^+/− and the HCT116 BAX^−/− cell lines were transfected with an expression vector encoding AKT-Myr and the cells were treated with the peptide. […] The survival of the BAX^−/− cells despite the CPP-BH3BIM(I155R/E158S) treatment could be explained by an observation that the designed peptide only weakly binds to MCL-1 (not shown), which is a major inhibitor of BAK.[35] Presumably, both MCL-1 and BAK are expressed in these cells.[36]
# Figure 6 CPP-fused BH3BIM(I155R/E158S) peptide induces death of PC3 cells. (a) Cell viability evaluated by the MTT assay 72 h after treatment of the peptide (0, 10 or 20 μM). N.S indicates non-significance. Error bars indicate S.D. (n=3). (b) The immunofluorescence images of PC3 and HCT116 cells treated with 20-μM CPP-BH3BIM(I155R/E158S). Cytochrome c (green) was detected by anti-cytochrome c antibody and FITC-conjugated secondary antibody, and the nucleus was stained by DAPI. The large boxes are the enlargement of the small boxes, highlighting the cytochrome c staining. (c) Western blot (WB) analysis to examine the effect of CPP-BH3BIM(I155R/E158S) on the phosphorylation of Akt (at Ser473) and GSK3β (at Ser9). […]
# HCT116 cells [2] = assay: Immunofluorescence of cytochrome c, HCT116 cells; format: cell-based, human; conditions: 20 μM
# Description: (§2) For intracellular delivery, BH3BIM(I155R/E158S) was fused to the C-terminus of the cell penetration peptide (CPP) derived from HIV Tat (Figure 1). PC3 and HCT116 cells were treated with the CPP-BH3BIM(I155R/E158S) peptide, and the MTT assay was performed. […] We then measured the activity of Akt by examining the phosphorylation state of itself and its substrate GSK3β. […] To elaborate this observation, we examined the effect of the fusion peptide in three different human lung cancer cell lines. […] We then assessed the effect of the Akt activity by ectopically expressing wild-type Akt (Akt-WT), constitutively active Akt (myristoylated Akt; Akt-Myr) or kinase-dead-Akt (Akt-KD). […] The kinase activities of the three Akt versions were confirmed by examining GSK3β phosphorylation (Figures 6f and p-GSK3β). […]
# (§3) Figure 6 CPP-fused BH3BIM(I155R/E158S) peptide induces death of PC3 cells. (a) Cell viability evaluated by the MTT assay 72 h after treatment of the peptide (0, 10 or 20 μM). […] Cytochrome c (green) was detected by anti-cytochrome c antibody and FITC-conjugated secondary antibody, and the nucleus was stained by DAPI. […]
# Cells were seeded on a cover glass and incubated with the CCP-fused BH3BIM(I155R/E158S) peptide. […] The immunofluorescence signal was detected by fluorescence microscopy (Zeiss, Oberkochen, Germany).
# PC3 cells [3] = assay: Immunofluorescence of cytochrome c, PC3 cells; format: cell-based, human
# Description: as §1
# Figure 6 CPP-fused BH3BIM(I155R/E158S) peptide induces death of PC3 cells. (a) Cell viability evaluated by the MTT assay 72 h after treatment of the peptide (0, 10 or 20 μM). N.S indicates non-significance. Error bars indicate S.D. (n=3). (b) The immunofluorescence images of PC3 and HCT116 cells treated with 20-μM CPP-BH3BIM(I155R/E158S). Cytochrome c (green) was detected by anti-cytochrome c antibody and FITC-conjugated secondary antibody, and the nucleus was stained by DAPI. The large boxes are the enlargement of the small boxes, highlighting the cytochrome c staining. (c) Western blot (WB) analysis to examine the effect of CPP-BH3BIM(I155R/E158S) on the phosphorylation of Akt (at Ser473) and GSK3β (at Ser9). PC3 cells were incubated with the peptide for 6 h at the indicated concentration. t-Akt and t-GSK3β stand for total Akt and GSK3β, respectively. (d) MTT assay to examine the cytotoxic effect of CPP-BH3BIM(I155R/E158S) on lung cancer cell lines. […] (e) Promotion of CPP-BH3BIM(I155R/E158S)-induced death of HCT116 cells by Akt. Cells were transfected with the indicated vectors for 24 h and incubated with the peptide for 72 h. Cell death was promoted by Akt-WT and Akt-Myr, but not by Akt-KD. (f) Phosphorylation of GSK3β (p-GSK3β) by Akt-WT and Akt-Myr, but not by Akt-KD. […]
# Figure 7 The BH3BIM(I155R/E158S) sequence induces phosphorylation-dependent cell death. […] Percent of live cells were determined by average of 200 cells in three independent experiments. […]
# PC3 cells [4] = assay: MTT viability assay, PC3 cells, CPP-fused peptide; conditions: 72 h, 0, 10 or 20 μM, n=3, PTEN-null, elevated Akt activity
# A549 = assay: MTT assay, A549 lung cancer cells; format: cell-based, human; conditions: K-Ras mutation
# Description: as §2, with “p-GSK3β). To know whether CPP-BH3BIM(I155R/E158S)-induced cell death might depend on BAX, the HCT116 BAX^+/− and the HCT116 BAX^−/− cell lines were transfected with an expression vector encoding AKT-Myr and the cells were treated with the peptide.” for “p-GSK3β).”
# as §3
# H23 = assay: MTT assay, H23 lung cancer cells; format: cell-based, human; conditions: wild-type K-Ras, normal Akt activity
# Description: as §2, with “p-GSK3β). To know whether CPP-BH3BIM(I155R/E158S)-induced cell death might depend on BAX, the HCT116 BAX^+/− and the HCT116 BAX^−/− cell lines were transfected with an expression vector encoding AKT-Myr and the cells were treated with the peptide.” for “p-GSK3β).”
# as §3
# HEK293 cells = assay: MTT assay, HEK293 cells; format: cell-based; conditions: AuNP-protein or CPP-peptide
# Description: Figure 7 The BH3BIM(I155R/E158S) sequence induces phosphorylation-dependent cell death. (a) Cell viability by the MTT assay. One day after transfection of PC3 cells with an empty vector (EV) or a PTEN-expressing vector (PTEN), cells were treated for 12 h with AuNP-anti-GST DNA aptamer composite coated with the indicated BH3BIM peptide fused to GST (5 μM). (b) Intracellular delivery of the GST-fused peptides. Cells were washed with PBS three times to remove proteins attached to the plasma membrane. M1 stands for BH3BIM (E158S), M2 for BH3BIM (I155R/E158A), and M3 for BH3BIM (I155R/E158S). (c) Cell viability by trypan blue dye exclusion assay. To confirm the effect in (a), cells were incubated with indicated materials for 24 h and stained with trypan blue for 10 min. Percent of live cells were determined by average of 200 cells in three independent experiments. (d) Immunostaining of cytochrome c in PC3 cells. […] Viable cells were evaluated 48 h after the treatment by the MTT assay. […]
# PC3 and HEK293 cells were incubated with the GST-BH3BIM(I155R/E158S) protein conjugated to AuNP-anti-GST DNA aptamer composite[37] after transfection with a PTEN expression vector (pCMV Flag WT-PTEN; addgene plasmid #22231). […] After removing excess solution and washing with PBS, the precipitated materials were dissolved in […] of dimethyl sulfoxide and quantified by measuring the absorbance at 540 nm. […]
# PARP = PARP cleavage; format: cell-based; conditions: PTEN-transfected; indicator of caspase activation
# Description: Figure 7 The BH3BIM(I155R/E158S) sequence induces phosphorylation-dependent cell death. (a) Cell viability by the MTT assay. One day after transfection of PC3 cells with an empty vector (EV) or a PTEN-expressing vector (PTEN), cells were treated for 12 h with AuNP-anti-GST DNA aptamer composite coated with the indicated BH3BIM peptide fused to GST (5 μM). (b) Intracellular delivery of the GST-fused peptides. Cells were washed with PBS three times to remove proteins attached to the plasma membrane. M1 stands for BH3BIM (E158S), M2 for BH3BIM (I155R/E158A), and M3 for BH3BIM (I155R/E158S). (c) Cell viability by trypan blue dye exclusion assay. To confirm the effect in (a), cells were incubated with indicated materials for 24 h and stained with trypan blue for 10 min. Percent of live cells were determined by average of 200 cells in three independent experiments. (d) Immunostaining of cytochrome c in PC3 cells. Cells were transfected (EV or PTEN), and incubated with the CPP-BH3BIM(I155R/E158S) peptide (CPP-peptide) for 48 h. […] (e) PTEN blocked the cytochrome c release from mitochondria. Cells were incubated with CPP-BH3BIM(I155R/E158S) for 6 h and subjected to cell fractionation. […] (g) HEK293 cells were treated in the same way as in (a). Viable cells were evaluated 48 h after the treatment by the MTT assay. Error bars indicate the S.D. (n=3) […]
# Akt = assay: Western blot of Akt phosphorylation (Ser473) in PC3 cells; format: cell-based; conditions: 6 h
# Description: as §2, with “p-GSK3β). To know whether CPP-BH3BIM(I155R/E158S)-induced cell death might depend on BAX, the HCT116 BAX^+/− and the HCT116 BAX^−/− cell lines were transfected with an expression vector encoding AKT-Myr and the cells were treated with the peptide.” for “p-GSK3β).”
# as §3
# GSK3β = assay: Western blot of GSK3β phosphorylation (Ser9) in PC3 cells; conditions: 6 h
# PC3 cells [5] = assay: Cell fractionation: cytochrome c release from mitochondria; format: cell-based; conditions: 6 h
# Description: Figure 7 The BH3BIM(I155R/E158S) sequence induces phosphorylation-dependent cell death. (a) Cell viability by the MTT assay. One day after transfection of PC3 cells with an empty vector (EV) or a PTEN-expressing vector (PTEN), cells were treated for 12 h with AuNP-anti-GST DNA aptamer composite coated with the indicated BH3BIM peptide fused to GST (5 μM). (b) Intracellular delivery of the GST-fused peptides. Cells were washed with PBS three times to remove proteins attached to the plasma membrane. M1 stands for BH3BIM (E158S), M2 for BH3BIM (I155R/E158A), and M3 for BH3BIM (I155R/E158S). (c) Cell viability by trypan blue dye exclusion assay. To confirm the effect in (a), cells were incubated with indicated materials for 24 h and stained with trypan blue for 10 min. Percent of live cells were determined by average of 200 cells in three independent experiments. (d) Immunostaining of cytochrome c in PC3 cells. Cells were transfected (EV or PTEN), and incubated with the CPP-BH3BIM(I155R/E158S) peptide (CPP-peptide) for 48 h. […] Cells were incubated with CPP-BH3BIM(I155R/E158S) for 6 h and subjected to cell fractionation. […] (g) HEK293 cells were treated in the same way as in (a). Viable cells were evaluated 48 h after the treatment by the MTT assay. Error bars indicate the S.D. (n=3) […]
# H1299 = assay: MTT assay, H1299 lung cancer cells; format: cell-based, human; conditions: PTEN-silenced
# Description: as §2, with “p-GSK3β). To know whether CPP-BH3BIM(I155R/E158S)-induced cell death might depend on BAX, the HCT116 BAX^+/− and the HCT116 BAX^−/− cell lines were transfected with an expression vector encoding AKT-Myr and the cells were treated with the peptide.” for “p-GSK3β).”
# as §3
sequence,measurement,setting,value
"YGRRARRRARREIWIAQELRRRGDSFNAYYAR [CPP-BH3BIM(I155R/E158S), BH3BIM(I155R/E158S) fused to the C-terminus of the cell penetration peptide (CPP) derived from HIV Tat]",promotion of peptide-induced cell death,HCT116 cells [1]; Akt-KD transfected 24 h,did not show an additive effect
same,promotion of peptide-induced cell death,HCT116 cells [1]; Akt-Myr transfected 24 h,promoted death of HCT116 cells
same,promotion of peptide-induced cell death,HCT116 cells [1]; Akt-WT transfected 24 h,promoted death of HCT116 cells
same,cytochrome c distribution,HCT116 cells [2],retained the puncta staining pattern
same,apoptotic cell death,"PC3 cells [3]; 20 μM, immunofluorescence",underwent apoptotic cell death
same,cytochrome c distribution,"PC3 cells [3]; 20 μM, immunofluorescence, untransfected PC3",diffused in the cytoplasm and gradually accumulated in the nucleus
same,cytochrome c staining pattern,"PC3 cells [3]; EV-transfected PC3, 48 h",diffused nuclear pattern
same,cytochrome c staining pattern,"PC3 cells [3]; PTEN-expressing PC3, 48 h",Cytoplasmic puncta staining pattern
same,cytotoxic activity,PC3 cells [4],strong cytotoxic activity
same,response to the peptide,A549,moderate response
same,response to the peptide,H23,did not respond to this peptide
same,viability of HEK293 cells (Supplementary Figure S6),HEK293 cells,slightly increased cell viability without a statistical significance
same,PARP cleavage with PTEN,PARP,PTEN also blocked PARP cleavage
same,phosphorylation of Akt (Ser473),Akt,not Akt itself
same,phosphorylation of GSK3β (Ser9),"GSK3β; PC3 cells, western blot",reduced the phosphorylation of GSK3β
same,p-S9-GSK3β,GSK3β; PTEN experiment (Figure 7e),Reduction of p-S9-GSK3β
same,cytoplasmic cytochrome c,PC3 cells [5],Increase of cytoplasmic cytochrome c
same,increase of cytoplasmic cytochrome c with PTEN expression,PC3 cells [5]; PTEN-transfected,obviously blocked by PTEN expression
same,sensitivity to the peptide,H1299,exhibited sensitivity to the peptide
